Measurements taken from patent US11795151B2, “Benzotriazole compound” (MIYOSHI OIL & FAT CO., LTD., priority 2017, dated 2023).

Experiments:
Type in all cases: physicochemical
[1] = Maximum solubility in various monomers; details: room temperature (20 to 30° C.), 4 hours
[2] = Evaluation of UV absorption performance (1): absorbance spectra in chloroform; details: 100 μM, 10-mm quartz cell
Protocol: Compounds 1 to 12 were diluted with 100 μM of chloroform, placed in a 10-mm quartz cell, and the absorbance spectra were measured using an ultraviolet-visible spectrophotometer (V-550, manufactured by JASCO Corporation)(FIGS. 1 to 12).
The absorption peak (maximum absorption wavelength: λmax) and absorbance in the wavelength range of 350 to 390 nm were read from the absorption spectra of Compounds 1 to 12, and the molar extinction coefficient of the peak (maximum molar extinction coefficient: εmax) was obtained by the following equation (able 1). Molar extinction coefficient:εmax(L/(mol·cm))=A:Absorbance/[c:Mol concentration(mol/L)×1:Cell optical length(cm)] [Equation 1]
In addition, from the absorption spectra of Compounds 1 to 12, assuming that an intersection of a long-wavelength side absorption spectrum in the absorption peak at 350 to 390 nm and a baseline (a line where the slope of the absorption spectrum at 380 to 500 nm is zero) is set as a […] (for example: FIG. 1), the absolute value of the slope of the absorption peak on the long-wavelength side in the wavelength region at 350 to 390 nm was obtained by the following equation: |Slope of absorption peak on long wavelength side in wavelength region of 350 to 390 nm|=|(Absorbance at peak end−Absorbance at absorption peak in wavelength region of 350 to 390 nm)/(Absorption wavelength at peak end−Wave length at absorption peak in wavelength region of 350 to 390 nm)| [Equation 2]

[3] = Evaluation of UV absorption performance (2): absorbance spectra in chloroform; details: 100 μM, 10-mm quartz cell
Protocol: Compounds 11 to 28 were diluted with 100 μM of chloroform and placed in a 10-mm quartz cell, and the absorbance spectra were measured using an ultraviolet-visible spectrophotometer (V-550, manufactured by JASCO Corporation)(FIGS. 11,12,14 to 29).
The absorption peak (maximum absorption wavelength: max) and absorbance in the wavelength range of 350 to 390 nm were read from the absorption spectra of Compounds 11 to 28, and a molar extinction coefficient (maximum molar extinction coefficient: εmax) of the peak was obtained by the following formula (Table 7): Molar extinction coefficient:εmax(L/(mol·cm))=A:Absorbance/[c:Mol concentration(mol/L)×1:Cell optical length(cm)] [Equation 3]
In addition, from the absorption spectra of Compounds 11 to 28, assuming that an intersection of a long-wavelength side absorption spectrum in the absorption peak at 350 to 390 nm and a baseline (a line where the slope of the absorption spectrum at […] is zero) is set as a peak end (for example: FIG. 1), the absolute value of the slope of the absorption peak on the long-wavelength side in the wavelength region at 350 to 390 nm was obtained by the following equation (Table 8): |Slope of absorption peak on long wavelength side in wavelength region of 350 to 390n|=|(Absorbance at peak end−Absorbance at absorption peak in wavelength region of 350 to 390 nm)/(Absorption wavelength at peak end−Wave length at absorption peak in wavelength region of 350 to 390 nm)| [Equation 4]

Maximum solubility ([1]; Dimethylacrylamide) [wt %]	Maximum solubility ([1]; Hexadiene) [wt %]	Maximum solubility ([1]; Methyl (meth)acrylate) [wt %]	Maximum solubility ([1]; Styrene) [wt %]	Maximum solubility ([1]; Vinyl acetate) [wt %]	Absorbance at absorption peak in wavelength region of 350 to 390 nm [2]	Absorbance at peak end [2]	Absorption wavelength at peak end [2] [nm]	Molar extinction coefficient at peak (maximum molar extinction coefficient: εmax) [2] [L/mol/cm]	Wave length at absorption peak in wavelength region of 350 to 390 nm (maximum absorption wavelength: λmax) [2] [nm]	Absorbance at absoprtion peak in wavelength region of 350 to 390 nm [3]	Absorbance at peak end [3]	Absorption wavelength at peak end [3] [nm]	Molar extinction coefficient at peak (maximum molar extinction coefficient: εmax) [3] [L/mol/cm]	Wave length at absorption peak in wavelength region of 350 to 390 nm (maximum absorption wavelength: λmax) [3] [nm]	SMILES
15	5	15	25	13	2.29	0.01022	422	21800	367	–	–	–	–	–	C=C(C)C(=O)Oc1ccc(Sc2ccc3nn(-c4cc(C)cc(C(C)(C)C)c4O)nc3c2)cc1 [Compound 5]
15	10	20	25	15	2.27	0.01184	424	21600	369	–	–	–	–	–	C=C(C)C(=O)OCCCCCCOc1ccc(Sc2ccc3nn(-c4cc(C)cc(C(C)(C)C)c4O)nc3c2)cc1 [Compound 6]
–	–	–	–	–	2.14	0.00702	422	21100	368	–	–	–	–	–	CCCCCCCCCCCCC/C=C/C(=O)OCCCCCCSc1ccc2nn(-c3cc(C)cc(C(C)(C)C)c3O)nc2c1 [Compound 9]
–	–	–	–	–	–	–	–	–	–	2.22	0.0302	419	22200	365	CC(=O)OCCSc1ccc2nn(-c3cc(C)cc(C(C)(C)C)c3O)nc2c1 [Compound 13]
–	–	–	–	–	–	–	–	–	–	2.21	0.02594	419	22100	365	Cc1cc(-n2nc3ccc(SCCOC(=O)c4ccccc4)cc3n2)c(O)c(C(C)(C)C)c1 [Compound 14]
–	–	–	–	–	–	–	–	–	–	2.22	0.01846	420	22200	367	CCCCCCCCCCCCCCCCCC(=O)OCCCCCCSc1ccc2nn(-c3cc(C)cc(C(C)(C)C)c3O)nc2c1 [Compound 16]
–	–	–	–	–	–	–	–	–	–	2.24	0.01899	422	22400	366	CC(=O)Oc1ccc(Sc2ccc3nn(-c4cc(C)cc(C(C)(C)C)c4O)nc3c2)cc1 [Compound 17]
–	–	–	–	–	–	–	–	–	–	2.22	0.02575	420	22200	366	CCCCCCCCCCCCCCCCCC(=O)Oc1ccc(Sc2ccc3nn(-c4cc(C)cc(C(C)(C)C)c4O)nc3c2)cc1 [Compound 18]
–	–	–	–	–	–	–	–	–	–	2.29	0.02244	422	22900	366	Cc1cc(-n2nc3ccc(Sc4ccc(OC(=O)c5ccccc5)cc4)cc3n2)c(O)c(C(C)(C)C)c1 [Compound 19]
–	–	–	–	–	–	–	–	–	–	2.20	0.00489	423	22000	368	CCCCCCCCCCCCCCCCCCNC(=O)OCCCCCCSc1ccc2nn(-c3cc(C)cc(C(C)(C)C)c3O)nc2c1 [Compound 20]
–	–	–	–	–	–	–	–	–	–	2.24	0.00955	424	22400	369	CC(=O)Nc1ccc(Sc2ccc3nn(-c4cc(C)cc(C(C)(C)C)c4O)nc3c2)cc1 [Compound 21]
–	–	–	–	–	–	–	–	–	–	2.23	0.01382	424	22300	369	CCCCCCCCCCCCCCCCCC(=O)Nc1ccc(Sc2ccc3nn(-c4cc(C)cc(C(C)(C)C)c4O)nc3c2)cc1 [Compound 22]
–	–	–	–	–	–	–	–	–	–	2.34	0.01418	424	23400	369	Cc1cc(-n2nc3ccc(Sc4ccc(NC(=O)c5ccccc5)cc4)cc3n2)c(O)c(C(C)(C)C)c1 [Compound 23]
–	–	–	–	–	–	–	–	–	–	2.36	0.02	424	23600	368	Cc1cc(-n2nc3ccc(Sc4ccc(NC(=O)c5ccc6ccccc6c5)cc4)cc3n2)c(O)c(C(C)(C)C)c1 [Compound 24]
–	–	–	–	–	–	–	–	–	–	2.27	0.0174	424	22700	370	CCNC(=O)Nc1ccc(Sc2ccc3nn(-c4cc(C)cc(C(C)(C)C)c4O)nc3c2)cc1 [Compound 25]
–	–	–	–	–	–	–	–	–	–	2.17	0.1501	419	21700	368	CCCCCCCCCCCCCCCCCCNC(=O)Nc1ccc(Sc2ccc3nn(-c4cc(C)cc(C(C)(C)C)c4O)nc3c2)cc1 [Compound 26]
–	–	–	–	–	–	–	–	–	–	2.39	0.01868	425	23900	369	Cc1cc(-n2nc3ccc(Sc4ccc(NC(=O)Nc5ccccc5)cc4)cc3n2)c(O)c(C(C)(C)C)c1 [Compound 27]
–	–	–	–	–	–	–	–	–	–	2.26	0.01853	423	22600	370	COc1ccc(NC(=O)Nc2ccc(Sc3ccc4nn(-c5cc(C)cc(C(C)(C)C)c5O)nc4c3)cc2)cc1 [Compound 28]
